EC50 data for 31 molecules are collected here from patent US20150087673A1, “METHODS FOR USING AND BIOMARKERS FOR AMPK-ACTIVATING COMPOUNDS” (RIGEL PHARMACEUTICALS, INC., priority 2013, published 2015).

The EC50 is the concentration that produces a half-maximal response.

The structures appear in SMILES notation.

The subject of the assay is AMPK. In words: AMPK activation assay (enzyme-linked immunosorbent assay). The class given is cell-based. Summed up:
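Kit-based immunoassay; compounds screened as activators; standard reagents and protocol.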
`N#Cc1ccc(O[C@H]2CC[C@@H](NC(=O)c3ccc(C(=O)N4CCC(Oc5ccc(F)cc5)CC4)cn3)CC2)cc1` [Compound 167, N-((cis)-4-(4-cyanophenoxy)cyclohexyl)-5-(4-(4-fluorophenoxy)piperidine-1-carbonyl)picolinamide] returned a concentration giving a half-maximal response (EC50) of less than 500 nM. As to `COc1ccc(OC2CCN(C(=O)c3ccc(C(=O)NC4CCN(Cc5cc(F)cc(F)c5)CC4)nc3)CC2)cc1` [Compound 296, N-(1-(3,5-difluorobenzyl)piperidin-4-yl)-5-(4-(4-methoxyphenoxy)piperidine-1-carbonyl)picolinamide], the concentration giving a half-maximal response (EC50) is less than 500 nM. As for `COc1cccc(Oc2ccc(NC(=O)c3ccc(C(=O)N4CCN(Cc5ccc(F)cc5)CC4)cn3)cc2)c1` [Compound 57, 5-(4-(4-fluorobenzyl)piperazine-1-carbonyl)-N-(4-(3-methoxyphenoxy)phenyl)picolinamide], the figure is less than 500 nM; as for `COc1ccc(OC2CCN(C(=O)c3ccc(C(=O)N[C@H]4CC[C@@H](Oc5ccc(C(F)(F)F)cc5)CC4)nc3)CC2)cc1` [Compound 191, 5-(4-(4-methoxyphenoxy)piperidine-1-carbonyl)-N-((cis)-4-(4-(trifluoromethyl)phenoxy)cyclohexyl) picolinamide], less than 500 nM. `N#Cc1ccc(CN2CCC(NC(=O)c3ccc(C(=O)N4CCC(Oc5ccc(C#N)cc5)CC4)nc3)CC2)cc1` [Compound 323, N-(1-(4-cyanobenzyl)piperidin-4-yl)-6-(4-(4-cyanophenoxy)piperidine-1-carbonyl)nicotinamide] displayed an EC50 of less than 500 nM. `CN1CCN(c2ccc(C(=O)C3CCN(C(=O)c4ccc(C(=O)NC5CCN(Cc6ccc(C#N)cc6)CC5)nc4)CC3)cc2)CC1` [Compound 380, N-(1-(4-cyanobenzyl)piperidin-4-yl)-5-(4-(4-(4-methylpiperazin-1-yl)benzoyl)piperidine-1-carbonyl)picolinamide] yielded an EC50 of less than 500 nM. Turning to `N#Cc1ccc(CN2CCC(NC(=O)c3ccc(C(=O)N4CCC(C(=O)c5ccc(N6CCCC6)cc5)CC4)nc3)CC2)cc1` [Compound 377, N-(1-(4-cyanobenzyl)piperidin-4-yl)-6-(4-(4-(pyrrolidin-1-yl)benzoyl)piperidine-1-carbonyl)nicotinamide], the 50% effective concentration (EC50) is less than 500 nM. `N#Cc1ccc(Oc2ccc(NC(=O)c3ccc(C(=O)N4CCC(C(=O)c5ccc(F)cc5F)CC4)nc3)cn2)cc1` [Compound 463, N-(6-(4-cyanophenoxy)pyridin-3-yl)-6-(4-(2,4-difluorobenzoyl)piperidine-1-carbonyl)nicotinamide] returned an EC50 of less than 500 nM. Consider `COc1ccc(C(=O)C2CCN(C(=O)c3ccc(C(=O)N[C@H]4CC[C@@H](Oc5ccc(F)cc5)CC4)cn3)CC2)cc1` [Compound 316, N-((cis)-4-(4-fluorophenoxy)cyclohexyl)-6-(4-(4-methoxybenzoyl)piperidine-1-carbonyl)nicotinamide], for which the 50% effective concentration (EC50) was less than 500 nM. As for `O=C(NC1CCN(Cc2ccc(N3CCCC3)cc2)CC1)c1ccc(C(=O)N2CCC(Oc3ccc(S(=O)(=O)C4CC4)cc3)CC2)nc1` [Compound 248, 6-(4-(4-(cyclopropylsulfonyl)phenoxy)piperidine-1-carbonyl)-N-(1-(4-(pyrrolidin-1-yl)benzyl)piperidin-4-yl)nicotinamide], the figure is less than 500 nM; as for `N#Cc1ccc(CN2CCC(NC(=O)c3ccc(C(=O)N4CCC(Oc5ccc(C#N)c(Cl)c5)CC4)cn3)CC2)cc1` [Compound 156, 5-(4-(3-chloro-4-cyanophenoxy)piperidine-1-carbonyl)-N-(1-(4-cyanobenzyl)piperidin-4-yl)picolinamide], less than 500 nM. Regarding `CS(=O)(=O)c1ccc(CN2CCC(NC(=O)c3ccc(C(=O)N4CCC(C(=O)c5ccc(F)cc5F)CC4)nc3)CC2)cc1` [Compound 213, 6-(4-(2,4-difluorobenzoyl)piperidine-1-carbonyl)-N-(1-(4-(methylsulfonyl)benzyl)piperidin-4-yl)nicotinamide], the concentration giving a half-maximal response (EC50) was less than 500 nM. In the case of `N#Cc1ccc(OC2CCN(C(=O)c3ccc(C(=O)Nc4ccc(Oc5ccc(F)cc5)nc4)cn3)CC2)cc1` [Compound 326, 6-(4-(4-cyanophenoxy)piperidine-1-carbonyl)-N-(6-(4-fluorophenoxy)pyridin-3-yl)nicotinamide], the half-maximal effective concentration (EC50) is less than 500 nM.

The molecule `CS(=O)(=O)c1ccc(C(=O)C2CCN(C(=O)c3ccc(C(=O)NC4CCN(Cc5ccc(F)cc5)CC4)cn3)CC2)cc1` [Compound 222, N-(1-(4-fluorobenzyl)piperidin-4-yl)-6-(4-(4-(methylsulfonyl)benzoyl)piperidine-1-carbonyl)nicotinamide] showed an EC50 of 1000 to 5000 nM. Regarding `COc1ccc(C(=O)C2CCN(C(=O)c3ccc(C(=O)N[C@@H]4CCN(Cc5ccc(C#N)cc5)C[C@@H]4F)cn3)CC2)cc1` (relative stereo) [Compound 454, N-((cis)-1-(4-cyanobenzyl)-3-fluoropiperidin-4-yl)-6-(4-(4-methoxybenzoyl)piperidine-1-carbonyl)nicotinamide], the concentration giving a half-maximal response (EC50) was less than 500 nM.

As to `N#Cc1ccc(Oc2ccc(NC(=O)c3ccc(C(=O)N4CCC(C(=O)c5ccc(F)cc5F)CC4)nc3)nc2)cc1` [Compound 469, N-(5-(4-cyanophenoxy)pyridin-2-yl)-6-(4-(2,4-difluorobenzoyl)piperidine-1-carbonyl)nicotinamide], the EC50 is less than 500 nM. The value for `O=C(Nc1ccc(-c2ccccc2)cc1)c1ccc(C(=O)NC2CCN(Cc3ccccc3)CC2)nc1` [Compound 105, N2-(1-benzylpiperidin-4-yl)-N5-(biphenyl-4-yl)pyridine-2,5-dicarboxamide] was more than 10000 nM; that for `N#Cc1ccc(CN2CCC(NC(=O)c3ccc(C(=O)N4CCC(C(=O)c5ccc(N6CCCC6)cc5)CC4)nc3)CC2)cc1F` [Compound 447, N-(1-(4-cyano-3-fluorobenzyl)piperidin-4-yl)-6-(4-(4-(pyrrolidin-1-yl)benzoyl)piperidine-1-carbonyl)nicotinamide] was less than 500 nM; that for `N#Cc1ccc(CN2CCC(NC(=O)c3ccc(C(=O)N4CCC(C(=O)c5ccc(Cl)cc5)CC4)cn3)CC2)cc1` [Compound 154, 5-(4-(4-chlorobenzoyl)piperidine-1-carbonyl)-N-(1-(4-cyanobenzyl)piperidin-4-yl)picolinamide] was less than 500 nM. `CC(C)Oc1ccc(CN2CCC(NC(=O)c3ccc(C(=O)N4CCC(C(=O)c5ccc(N6CCCC6)cc5)CC4)nc3)CC2)cc1` [Compound 446, N-(1-(4-isopropoxybenzyl)piperidin-4-yl)-6-(4-(4-(pyrrolidin-1-yl)benzoyl)piperidine-1-carbonyl)nicotinamide]: the EC50 was less than 500 nM. As for `COc1ccc(C(=O)C2CCN(C(=O)c3ccc(C(=O)Nc4ccc(Oc5ccc(F)cc5)nc4)cn3)CC2)cc1` [Compound 325, N-(6-(4-fluorophenoxy)pyridin-3-yl)-6-(4-(4-methoxybenzoyl)piperidine-1-carbonyl)nicotinamide], the EC50 was less than 500 nM.

As for `C[S+]([O-])c1ccc(C(=O)C2CCN(C(=O)c3ccc(C(=O)NC4CC[N+]([O-])(Cc5ccc(C#N)cc5)CC4)nc3)CC2)cc1` (stereo not shown) [Compound 374, 1-(4-cyanobenzyl)-4-(5-(4-(4-(methylsulfinyl)benzoyl)piperidine-1-carbonyl)picolinamido)piperidine 1-oxide], the EC50 was more than 10000 nM. As to `CC(=O)Nc1cccc(OC2CCN(C(=O)c3ccc(C(=O)NC4CCN(Cc5ccc(F)cc5)CC4)cn3)CC2)c1` [Compound 413, 6-(4-(3-acetamidophenoxy)piperidine-1-carbonyl)-N-(1-(4-fluorobenzyl)piperidin-4-yl)nicotinamide], the EC50 fell in the range of 1000 to 5000 nM. `N#Cc1ccc(CN2CCC(NC(=O)c3ccc(N4CCCC(Oc5ccc(C#N)cc5)C4)cn3)CC2)cc1` (stereo not shown) [Compound 265, N-(1-(4-cyanobenzyl)piperidin-4-yl)-5-(3-(4-cyanophenoxy)piperidin-1-yl)picolinamide] returned an EC50 of 1000 to 5000 nM. Regarding `N#Cc1ccc(CN2CCC(NC(=O)c3ccc(C(=O)N4CCC(C(F)c5ccc(F)cc5)CC4)cn3)CC2)cc1` (stereo not shown) [Compound 138, N-(1-(4-cyanobenzyl)piperidin-4-yl)-5-(4-(fluoro(4-fluorophenyl)methyl)piperidine-1-carbonyl)picolinamide], the EC50 was less than 500 nM.

As to `COc1ccc(OC2CCN(C(=O)c3ccc(C(=O)N[C@H]4CC[C@@H](Oc5ccc(OC)cc5)CC4)nc3)CC2)cc1` [Compound 186, N-((cis)-4-(4-methoxyphenoxy)cyclohexyl)-5-(4-(4-methoxyphenoxy)piperidine-1-carbonyl)picolinamide], the EC50 was less than 500 nM. Molecule `O=C(Nc1ccc(Oc2ccc(F)cc2)nc1)c1ccc(C(=O)N2CCC(C(=O)c3ccc(F)c(F)c3)CC2)cn1` [Compound 330, 5-(4-(3,4-difluorobenzoyl)piperidine-1-carbonyl)-N-(6-(4-fluorophenoxy)pyridin-3-yl)picolinamide] came in with a 50% effective concentration (EC50) of 500 to 1000 nM. `CS(=O)(=O)c1ccc(OC2CCN(C(=O)c3ccc(C(=O)Nc4ccc(S(=O)(=O)c5ccc(F)cc5)nc4)nc3)CC2)cc1` [Compound 261, N-(6-(4-fluorophenylsulfonyl)pyridin-3-yl)-5-(4-(4-(methylsulfonyl)phenoxy)piperidine-1-carbonyl)picolinamide] had an EC50 of less than 500 nM. The value for `N#Cc1ccc(CN2CCC(Nc3ccc(C(=O)N4CCN(Cc5ccc(F)cc5)CC4)cn3)CC2)cc1` [Compound 36, (6-(4-(cyanobenzyl)piperidin-4-ylamino)pyridin-3-yl)(4-(4-fluorobenzyl)piperazin-1-yl)methanone] was 500 to 1000 nM; that for `CC(=O)c1ccc(Oc2ccc(NC(=O)c3ccc(C(=O)N4CCN(c5ccc(S(C)(=O)=O)cc5)CC4)nc3)cn2)cc1` [Compound 487, N-(6-(4-acetylphenoxy)pyridin-3-yl)-6-(4-(4-(methylsulfonyl)phenyl)piperazine-1-carbonyl)nicotinamide] was 1000 to 5000 nM; that for `O=C(Nc1ccccc1)c1ccc(C(=O)N2CCN(Cc3ccc(F)cc3)CC2)cn1` [Compound 107, 5-(4-(4-fluorobenzyl)piperazine-1-carbonyl)-N-phenylpicolinamide] was 5000 to 10000 nM.
